Laboratory results as given in patent publication US7001608B2, “Artificial synapse chip interface for electronic prosthetic retina” (The Board of Trustees of the Lealand Stanford Junior …, priority 2001, dated 2006).

Assay: Gramicidin D conductance change in lipid bilayer across silicon nitride aperture
Assay type: biochemical
Conditions: 5 to 20 μl of 2 mg/ml gD in ethanol to each bath; within minutes; capacitance remained constant; ethanol alone no effect
Excerpt: Lipid bilayers were formed by the method of Montal and Mueller (1972). In practicing the Langmuir-Blodgett technique, one raises two lipid monolayers across an aperture, allowing the lipids to align their hydrophobic tail portions across the aperture so as to form a lipid bilayer. Because of the hydrophobic nature of the lipid tails, in order to form stable bilayers the surface of a BSP must also be hydrophobic. If the substrate is hydrophobic, the lipids can smoothly transition from coating the substrate to spanning the aperture. To reverse the wetting properties of the naturally hydrophilic silicon nitride, the silicon nitride was coated with an alkylsilane (octyltrichlorosilane). Application of this coating was quite simple and very effective. It was not found to be possible to form a bilayer with untreated devices. Use of longer carbon chain silanes or alternative materials to make the surface even more hydrophobic would further increase bilayer stability.
For smaller apertures, it was more difficult to observe the capacitance change over the background. In this case, membrane-bound proteins that affect the electrical properties of the bilayer, such as carriers and ion channels, offered the best proof of the formation of a bilayer. The ion channel peptide Gramicidin D (gD), was chosen for ease of use and large conductance change. […]

## Gramicidin D [gD]
  conductance of the bilayer: dramatically increased
